According to publication PMC12298883, “Discovery of Cyclopentane-Based Phospholipids as Miltefosine Analogs with Superior Potency and Enhanced Selectivity Against Naegleria fowleri” (Pharmaceuticals, 2025):
Read-outs that look alike come from different tables or passages of the source.

What was measured:
[1] = tested on: N. fowleri trophozoites; assay: TUNEL assay (DNA fragmentation); format: cell-based, Naegleria fowleri; conditions: at IC90, 48 h; PI counterstain
Experimental: To further confirm the apoptotic mode of cell death induced by compounds 2a, 3b and 3d in N. fowleri, a TUNEL assay was conducted. This assay detects DNA fragmentation, a hallmark of apoptosis, by incorporating fluorescent dUTP at DNA break sites. […] This difference could reflect variations in the specific molecular pathways targeted by each compound or differences in their cellular uptake or metabolism.
Figure 6 TUNEL assay. DNA fragmentation implying apoptosis was detected by TUNEL (GFP channel, (Ex/Em = 490/525 nm) in the amoebae treated with tested compounds. These amoebae were also counterstained with PI (RFP channel, Ex/Em = 550/650 nm). Miltefosine (MF) was included as a positive reference control. NC, negative controls with 0.1% DMSO treatment. Images were representatives of the cell population in three individual experiments. Size bar: 10 µm.
N. fowleri trophozoites (2 × 10^6 cells/well) were seeded in a 6-well plate (Thermo Fisher Scientific), treated with compounds 2a, 3b or 3d (IC90) and incubated at 37 °C for 48 h. The TUNEL assay was performed by using TUNEL Fluorescein Isothiocyanate (FITC) Assay Kit (Abcam, Cambridge, UK) as described previously. N. fowleri trophozoites treated with 0.01% DMSO was used as an NC. The amoeba treated with miltefosine (IC90) were used as a positive control.

[2] = tested on: N. fowleri trophozoites; assay: Anti-amoebic viability assay (CellTiter-Blue) with microscopic observation; format: cell-based, Naegleria fowleri; conditions: for Selectivity Index: CC50 of C6 glial cell divided by IC50 of inhibition of N. fowleri; for IC50 / IC90: 48 h, N. fowleri trophozoites, viability; for IC50: mean ± SD of three assays, read-out: IC50 of Inhibition of N. fowleri; for IC90: mean ± SD; for morphological changes of N. fowleri (microscopy): treated trophozoites versus 0.1% DMSO negative control; for Relative Potency to Miltefosine: IC50 of miltefosine divided by IC50 of compound, N. fowleri
Experimental: (§1) A viability assay was performed to evaluate the inhibitory activity of the tested compounds by determining their IC50 values against N. fowleri, using miltefosine as a reference drug. To assess the selectivity of the tested compounds relative to miltefosine, cytotoxic values that reduced the viability of C6 glial cells by 50% were established.
(§2) N. fowleri Carter NF69 strain (ATCC 30215; American Type Culture Collection, Manassas, VA, USA) was used. Amoeba trophozoites were cultured and maintained in Nelson’s medium containing 5% foetal bovine serum (FBS; Gibco, Grand Island, NY, USA) and 1% penicillin/streptomycin (P/S; Gibco, Grand Island, NY, USA) at 37 °C [56]. C6 rat glial cells (C6 cells; ATCC CCL-107) were cultured in Dulbecco’s Modified Eagle’s Medium (DMEM; Gibco, Grand Island, NY, USA) supplemented with 10% FBS (Gibco, Grand Island, NY, USA) and 1% P/S (Gibco, Grand Island, NY, USA) at 37 °C in a humidified incubator under 5% CO2 atmosphere.
N. fowleri trophozoites (5 × 10^4 cells/well) were seeded in a 96-well microplate (Thermo Fisher Scientific, Waltham, MA, USA) in Nelson’s medium and incubated at 37 °C overnight. N. fowleri trophozoites were treated with 2-fold serial dilutions of tested compounds (from 0 to 200 µM) or miltefosine (150 µM) and incubated at 37 °C for 48 h. The viability of the amoebae was determined using the CellTiter-Blue® Cell viability assay (Promega, Madison, WI, USA). Inhibitory concentration 50 (IC50) and IC90 were calculated by the nonlinear regression method using GraphPad Prism 9.1.0 software (GraphPad Software, San Diego, CA, USA). Amoebae treated with 0.1% DMSO were used as a control, representing 100% cell viability. Morphological changes of the amoebae were observed microscopically.

[3] = tested on: C6 glial cells; assay: Cytotoxicity assay for C6 cells (CellTiter-Blue); format: cell-based; conditions: C6 rat glial cells, viability; mean ± SD
Experimental: as §1, §2
The potential cytotoxicity of tested compounds and miltefosine in C6 cells was analysed. The cells were seeded in a 96-well microplate (Thermo Fisher Scientific; 2 × 10^4 cells/well), respectively, and incubated overnight until 80% confluent. Serially diluted tested compounds and miltefosine were treated to the cells as described above. Morphological changes of the cells were observed by microscopic examination. Cell viability was determined using the CellTiter-Blue® Cell viability assay (Promega, […], USA). The cytotoxic concentrations 50 (CC50) of tested compounds and miltefosine were calculated using GraphPad Prism 9.1.0 software (GraphPad Software, San Diego, CA, USA). The […] (SI) was determined by the ratio between CC50 and IC50. Cells treated with 0.1% DMSO, which was confirmed not to alter the morphology of the cells by microscopic examination, were used as controls with 100% cell viability.

| Structure (SMILES) | DNA fragmentation (TUNEL green fluorescence) [1] | Selectivity Index [2] | IC50 ([2]; Naegleria fowleri) | IC90 ([2]; Naegleria fowleri) | morphological changes of N. fowleri (microscopy) [2] | Relative Potency to Miltefosine [2] | fold the potency of trans-configured behenyl derivative 2d ([2]; N. fowleri IC50 ratio versus compound 2d) | CC50 [3] | IC50 [2] |
| --- | --- | --- | --- | --- | --- | --- | --- | --- | --- |
| CCCCCCCCCCCCCO[C@@H]1CCC[C@H]1COP(=O)([O-])OCC[N+](C)(C)C [Compound 2a] | intense green fluorescence, confirming DNA fragmentation | 7.53 | 42 ± 1.32 µM | 109 µM | dose-dependent morphological changes |  |  |  |  |
| CCCCCCCCCCCCCOC[C@@H]1CCC[C@H]1OP(=O)([O-])OCC[N+](C)(C)C [Compound 3b] | intense green fluorescence, confirming DNA fragmentation | 3.90 | 40.9 ± 1.9 µM | 104 µM | dose-dependent morphological changes |  |  |  |  |
| CCCCCCCCCCCCCCCCCCCCCCOC[C@@H]1CCC[C@H]1OP(=O)([O-])OCC[N+](C)(C)C [Compound 3d] | intense green fluorescence, confirming DNA fragmentation | 3.49 | 24.3 ± 1.1 µM | 187 µM | dose-dependent morphological changes | 6.03 fold | 2.29 fold |  |  |
| CCCCCCCCCCCCCCCCOP(=O)([O-])OCC[N+](C)(C)C [Miltefosine] | intense green fluorescence, confirming DNA fragmentation | ~1.08 | 146.44 ± 0.12 µM | > 200 µM |  | 1.00 fold |  | 158.9 ± 1.49 µM | 146.53 ± 0.12 µM |
